Test results from patent publication US11191773B2, “Methods of treatment for bacterial infections” (President and Fellows of Harvard College, priority 2017, dated 2021).
Like-named read-outs stand apart in the source and are kept apart here.

Key:
[1] = system: K. pneumoniae, A. baumannii, P. aeruginosa, E. coli; experiment: Log(CFU/mL) vs. time curves (FIG. 3); assay type: cell-based; details: Novobiocin 50-130 μg/mL, Polymyxin B 1.4-2.0 μg/mL
Description: FIGS. 3A-3D are a set of plots of colony forming units/ml (CFU/ml) over time when untreated, or treated with polymyxin B, novobiocin, or a combination of both. FIG. 3A is a growth curve of Klebsiella pneumoniae. FIG. 3B is a growth curve of Acinetobacter baumannii Novo^R. FIG. 3C is a plot of CFU/ml over time of Pseudomonas aeruginosa. FIG. 3D is a growth curve of Escherichia coli.
Log(CFU/mL) vs. time curves. Overnight cultures were diluted 1:100 and grown at 37° C., 220 rpm until OD600=0.1. This culture was transferred to four sterile 5 mL tubes and treated with polymyxin B, novobiocin, polymyxin B+novobiocin, or no drug and incubated at 37° C., 220 rpm. At each timepoint, 10 μL from each condition was log10 diluted to 10^−7 and subsequently plated on LB Miller agar containing no antibiotic. Time=0 h represents the CFU/mL count immediately after the initial treatment. Y-values of zero indicate fewer than 10,000 CFUs (limit of detection). Strains are identical to those used in FIG. 1. K. pneumoniae: [Novobiocin]=130 μg/mL, [Polymyxin B]=1.4 μg/mL; A. baumannii: [Novobiocin]=100 μg/mL, [Polymyxin B]=2.0 μg/mL; P. aeruginosa: [Novobiocin]=100 μg/mL, [Polymyxin B]=2.0 μg/mL; E. coli: [Novobiocin]=50 μg/mL, [Polymyxin B]=2.0 μg/mL.

lptB1 [2] = experiment: Minimum inhibitory concentration assay; assay type: cell-based, E. coli; details: Escherichia coli, 15 h, read-out: Minimum inhibitory concentration
Description: We wondered whether it would be possible to separate novobiocin's ability to suppress the IptFG(ch) defects in vivo from its activity against DNA gyrase, its presumed primary target. […] Minimum inhibitory concentrations were measured after a 15-hr incubation period at 37° C.
Overnight cultures were prepared by transferring 5 mL of sterile LB Miller media to culture tubes and inoculating with the corresponding organism. The tubes were allowed to shake at 220 rpm, 37° C. overnight. 15 μL of overnight culture was diluted in 15 mL of LB Miller in a Falcon tube and was vortexed to mix. In a 96-well plate, 100 μL of diluted culture was added to each well. To column #1, an additional 100 μL of diluted culture and test compound was added (93.7 μL culture+6.35 μL 10 mg/mL novobiocin) or (94.2 μL culture+5.87 μL 10 mg/mL 1-adamantyl-novobiocin) such that the highest concentration tested was 500 μM. Transferred 100 μL from column #1 into column #2, etc, and mixed each time thoroughly. Repeated serial dilution until column #11. Incubated the plate at 37° C. overnight (˜16 h) and read the turbidity (OD600) using a Spectramax 384 plus plate reader (Molecular Devices).

IptFG(ch) mutant = experiment: Rescue of growth of coupling helix mutant (plating and disk assays); assay type: cell-based, E. coli
Description: FIG. 8B is a series of pictures of bacterial overnight cultures grown in minimal medium. The cultures were serially diluted ten-fold and spotted onto LB agar plates with and without compounds.
FIG. 15 is a picture of bacterial lawns grown on plates in the presence of disks containing antibiotics. […] Strains were grown overnight in minimal media and then plated on LB plates. Each disk contained 5 μg compound.
The coupling helices in LptFG each contain a strictly-conserved glutamate, and changing both glutamates to alanine (IptFG(ch)) causes a lethal loss of function (FIG. 8B, LB panel). […] Because novobiocin also contacts R91 (FIG. 7C), we speculated that it might rescue growth of IptFG(ch) by masking the charge. […] We conclude that novobiocin suppresses Lpt defects in vivo by interacting with LptB at R91; therefore, novobiocin interacts with LptB in cells in a similar manner to that observed in the crystal structure.
(§1) Disk diffusion assays were performed as described in Sherman et al., Proc. Natl. Acad. Sci. USA 2014, 111, 4982-4987. Premade Sensi-Disc (BD-Beckton, Dickinson and Company) were used for bacitracin 10IU, erythromycin 15 μg, novobiocin 30 μg, and rifampin 5 μg.
Efficiency of plating assays were performed on indicated media using the method described in Butler et al., J. Bacteriol. 2013, 195, 4639-4649.

Klebsiella pneumoniae = experiment: Minimal inhibitory concentrations, checkerboard microdilution; assay type: cell-based; details: Klebsiella pneumoniae; grown at 37° C. for 24 h; read-out: MIC
Description: (§2) Checkerboard microdilution assays between polymyxin B and novobiocin were performed in wild-type strains (unless otherwise noted) grown at 37° C. for 24 h. Checkerboard data (FIG. 1A-1F) are representative of at least three biological replicates. The following strains were tested: A) Wild-type Escherichia coli, ATCC 25922; B) Wild-type Enterobacter cloacae; ATCC 13047) Wild-type Klebsiella pneumoniae, ATCC 700721; D) Wild-type Pseudomonas aeruginosa, ATCC 15692 (PAO1); E) Wild-type Acinetobacter baumannii, ATCC 19606; F) novobiocin-resistant Acinetobacter baumannii, ATCC 19606 gyrB(R150C).

Escherichia coli = experiment: as above; assay type: cell-based; details: Escherichia coli; grown at 37° C. for 24 h; read-out: MIC
Description: as §2

[3] = system: Acinetobacter baumannii Novo^R; experiment: as above; assay type: cell-based; details: Acinetobacter baumannii, 24 h
Description: as §2

Pseudomonas aeruginosa = experiment: as above; assay type: cell-based; details: Pseudomonas aeruginosa; grown at 37° C. for 24 h; read-out: MIC
Description: as §2

wild type = experiment: Disk diffusion assay; assay type: cell-based, E. coli; details: Escherichia coli; 6-mm disks; bacitracin 10IU, erythromycin 15 μg, novobiocin 30 μg, rifampin 5 μg, nalidixic acid 5 μg; read-out: Zone of inhibition, diameter of the zone of total growth inhibition
Description: (§3) Zones of inhibition were measured in disk diffusion assays of wild type, IptB1, and suppressors IptB1(R144H) and IptB1(G33C) pictured in FIG. 6B. Assays were conducted with 6-mm disks. Numbers outside of parentheses report the diameter of the zone of total growth inhibition (in mm), while numbers inside parenthesis report the diameter of the zone of partial growth inhibition.
as §1

lptB1 [4] = experiment: Disk diffusion assay; assay type: cell-based, E. coli; details: Escherichia coli
Description: as §3, §1

lptB1(G33C) = experiment: Disk diffusion assay; assay type: cell-based, E. coli; details: Escherichia coli, read-out: Zone of inhibition, diameter of the zone of total growth inhibition
Description: as §3, §1

lptB1(R144H) = experiment: Disk diffusion assay; assay type: cell-based, E. coli; details: Escherichia coli, read-out: Zone of inhibition, diameter of the zone of total growth inhibition
Description: as §3, §1

## CO[C@@H]1[C@@H](OC(N)=O)[C@@H](O)[C@H](Oc2ccc3c(O)c(NC(=O)c4ccc(O)c(CC=C(C)C)c4)c(=O)oc3c2C)OC1(C)C [Novobiocin, novobiocin]
[1]
  killing by combination with polymyxin B, CFU/mL over time: synergy is bactericidal
lptB1 [2]
  MIC: < 0.5 µM
IptFG(ch) mutant; disks on LB plates, each disk 5 μg compound (FIG. 15)
  suppression of lethality of IptFG(ch): suppressed the lethality of IptFG(ch)
IptFG(ch) mutant; serial dilutions spotted onto LB agar plates with compound (FIG. 8B)
  rescue of growth of IptFG(ch): enables the IptFG(ch) mutant to grow
Klebsiella pneumoniae
  MIC: 270 µg/mL
Escherichia coli
  MIC: 20 µg/mL
[3]
  MIC: 190 µg/mL
Pseudomonas aeruginosa
  MIC: > 450 µg/mL
Wild type
  zone of inhibition at 30 µg/disc: < 6 mm
lptB1 [4]; read-out: Zone of inhibition, diameter of the zone of partial growth inhibition (in parentheses)
  zone of inhibition at 30 µg/disc: 24 mm
lptB1 [4]; read-out: Zone of inhibition, diameter of the zone of total growth inhibition
  zone of inhibition at 30 µg/disc: 14 mm
lptB1(G33C)
  zone of inhibition at 30 µg/disc: < 6 mm
lptB1(R144H)
  zone of inhibition at 30 µg/disc: < 6 mm
